Measurements taken from ChEMBL document CHEMBL4420076, “Amylin and calcitonin receptor agonist” (2017).
Values after ≈ are worked out from the molar mass of the structure shown. Square brackets hold non-standard residues; d marks the D form. Peptide text beside a SMILES is read from it. * marks the point of attachment. ξ: configuration not given here. C18 diacid = O=C(O)CCCCCCCCCCCCCCCCC(=O)*; Ile(3ξ) = CCC(C)[C@H](N)C(=O)O

Key:
[1] = Solubility in 100 mM glycylglycine buffer at pH 5.0 incubated for 18 hrs by UPLC analysis; assay type: physicochemical
[2] = Solubility in 100 mM glycylglycine buffer at pH 3.0 incubated for 18 hrs by UPLC analysis; assay type: physicochemical
[3] = Solubility in 100 mM bistrispropane buffer at pH 6.5 incubated for 18 hrs by UPLC analysis; assay type: physicochemical
[4] = Solubility in 100 mM bistrispropane buffer at pH 6.0 incubated for 18 hrs by UPLC analysis; assay type: physicochemical
[5] = Solubility in 100 mM bistrispropane buffer at pH 8.0 incubated for 18 hrs by UPLC analysis; assay type: physicochemical
[6] = Solubility in 100 mM bistrispropane buffer at pH 7.0 incubated for 18 hrs by UPLC analysis; assay type: physicochemical
[7] = Solubility in 100 mM bistrispropane buffer at pH 7.5 incubated for 18 hrs by UPLC analysis; assay type: physicochemical
Calcitonin receptor = biological target: T1, Calcitonin receptor (Homo sapiens, UniProt P30988); test: Agonist activity at human calcitonin receptor expressed in BHK570 cells assessed as increase in intracellular cAMP concentration incubated for 3 hrs in absence of albumin by CRE luciferase reporter gene assay; assay type: functional, cell-based
T1 sequence (P30988 whole entry): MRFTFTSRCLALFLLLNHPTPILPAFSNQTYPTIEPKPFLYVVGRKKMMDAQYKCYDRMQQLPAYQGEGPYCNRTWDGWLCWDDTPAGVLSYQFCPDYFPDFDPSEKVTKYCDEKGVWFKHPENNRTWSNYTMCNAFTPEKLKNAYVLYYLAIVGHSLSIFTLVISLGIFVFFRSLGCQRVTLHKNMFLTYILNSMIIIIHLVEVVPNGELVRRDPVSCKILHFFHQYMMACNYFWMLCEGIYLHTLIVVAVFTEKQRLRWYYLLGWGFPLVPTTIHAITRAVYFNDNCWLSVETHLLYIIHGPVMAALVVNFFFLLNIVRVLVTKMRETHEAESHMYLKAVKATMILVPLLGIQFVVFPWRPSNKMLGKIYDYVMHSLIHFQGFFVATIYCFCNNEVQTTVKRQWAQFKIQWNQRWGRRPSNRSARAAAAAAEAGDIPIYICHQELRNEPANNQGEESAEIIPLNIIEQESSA

[8] = Solubility in 100 mM glycylglycine buffer at pH 4.0 incubated for 18 hrs by UPLC analysis; assay type: physicochemical
[9] = biological target: T2, Amylin receptor AMY3; CALCR/RAMP3 (Homo sapiens, UniProt O60896+P30988); test: Agonist activity at human amylin receptor expressed in BHK570 cells co-expressing RAMP3 assessed as increase in intracellular cAMP concentration incubated for 3 hrs in absence of albumin by CRE luciferase reporter gene assay; assay type: functional, cell-based
T2 sequence (P30988 whole entry): T1 sequence (P30988 whole entry)
T2 sequence (O60896 whole entry): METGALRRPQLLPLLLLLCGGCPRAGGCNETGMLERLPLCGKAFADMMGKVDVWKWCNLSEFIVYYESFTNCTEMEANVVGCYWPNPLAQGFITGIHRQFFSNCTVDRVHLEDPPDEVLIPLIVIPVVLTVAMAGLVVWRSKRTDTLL

SMILES	solubility at 18 h [1] [µM]	solubility at 18 h [2] [µM]	solubility at 18 h [3] [µM]	solubility at 18 h [4] [µM]	solubility at 18 h [5] [µM]	solubility at 18 h [6] [µM]	solubility at 18 h [7] [µM]	EC50 (Calcitonin receptor) [pM]	solubility at 18 h [8] [µM]	EC50 [9] [pM]
CC(C)C[C@H](NC(=O)[C@H](CCCNC(=N)N)NC(=O)CNC(=O)[C@H](CC(C)C)NC(=O)[C@@H](NC(=O)[C@H](C)NC(=O)[C@@H](NC(=O)[C@H](CO)NC(=O)[C@H](CC(C)C)NC(=O)[C@H](CCC(=O)O)NC(=O)[C@H](CO)NC(=O)[C@H](C)NC(=O)CC[C@H](NC(=O)CCCCCCCCCCCCCCCCCCC(=O)O)C(=O)O)[C@@H](C)O)C(C)C)C(=O)N[C@@H](CO)C(=O)N[C@@H](CCC(N)=O)C(=O)N[C@@H](CCC(=O)O)C(=O)N[C@@H](CC(C)C)C(=O)N[C@@H](Cc1cnc[nH]1)C(=O)N[C@@H](CCC(=O)O)C(=O)N[C@@H](CC(C)C)C(=O)N[C@@H](CCC(N)=O)C(=O)N[C@H](C(=O)N[C@@H](Cc1ccc(O)cc1)C(=O)N1CCC[C@H]1C(=O)N[C@@H](CCCNC(=N)N)C(=O)N[C@H](C(=O)N[C@@H](CCC(=O)O)C(=O)N[C@H](C(=O)NCC(=O)N[C@@H](CO)C(=O)NCC(=O)N[C@H](C(=O)N[C@@H](Cc1ccc(O)cc1)C(N)=O)[C@@H](C)O)[C@@H](C)O)[C@@H](C)O)[C@H](C)O	7 (≈ 27.6 µg/mL)	≥ 200	≥ 200	≥ 200	≥ 200	≥ 200	≥ 200			
CC(C)C[C@H](NC(=O)[C@H](CCC(=O)O)NC(=O)[C@H](Cc1cnc[nH]1)NC(=O)[C@H](CC(C)C)NC(=O)[C@H](CCC(=O)O)NC(=O)[C@H](C)NC(=O)[C@H](CO)NC(=O)[C@H](CC(C)C)NC(=O)[C@H](CCCNC(=N)N)NC(=O)CNC(=O)[C@H](CC(C)C)NC(=O)[C@@H](NC(=O)[C@H](C)NC(=O)[C@@H](NC(=O)[C@H](CO)NC(=O)[C@H](CC(C)C)NC(=O)[C@@H]1CCCN1C(=O)[C@@H]1CCCN1C(=O)[C@H](C)NC(=O)[C@H](CCC(=O)O)NC(=O)CCCCCCCCCCCCCCCCC(=O)O)[C@@H](C)O)C(C)C)C(=O)N[C@@H](C)C(=O)N[C@H](C(=O)N[C@@H](CC(C)C)C(=O)N1CCC[C@H]1C(=O)N[C@@H](CCCNC(=N)N)C(=O)N[C@H](C(=O)N[C@@H](CCC(=O)O)C(=O)N[C@H](C(=O)NCC(=O)N1CCC[C@H]1C(=O)N[C@@H](CCC(=O)O)C(=O)N[C@@H](CO)C(=O)N1CCC[C@H]1C(N)=O)[C@@H](C)O)[C@@H](C)O)[C@@H](C)O ({C18 diacid}-EAPPLSTAVLGRLSAELHELATLPRTETGPESP-NH2)	≥ 200	≥ 200	≥ 200	≥ 200	≥ 200	≥ 200	≥ 200	6	≥ 200	12
CC(C)C[C@H](NC(=O)[C@H](C)NC(=O)[C@@H](NC(=O)[C@H](CO)NC(=O)[C@H](CC(C)C)NC(=O)[C@H](CCC(=O)O)NC(=O)[C@H](CO)NC(=O)[C@H](C)NC(=O)[C@H](CCC(=O)O)NC(=O)CCCCCCCCCCCCCCCCC(=O)O)[C@@H](C)O)C(=O)N[C@@H](C)C(=O)NCC(=O)N[C@@H](CCCNC(=N)N)C(=O)N[C@@H](CC(C)C)C(=O)N[C@@H](CO)C(=O)N[C@@H](C)C(=O)N[C@@H](CCC(=O)O)C(=O)N[C@@H](CC(C)C)C(=O)N[C@@H](Cc1cnc[nH]1)C(=O)N[C@@H](CCC(=O)O)C(=O)N[C@@H](CC(C)C)C(=O)N[C@@H](C)C(=O)N[C@H](C(=O)N[C@@H](CC(C)C)C(=O)N1CCC[C@H]1C(=O)N[C@@H](CCCNC(=N)N)C(=O)N[C@H](C(=O)N[C@@H](CCC(=O)O)C(=O)N[C@H](C(=O)NCC(=O)N1CCC[C@H]1C(=O)N[C@@H](CCC(=O)O)C(=O)N[C@@H](CO)C(=O)N1CCC[C@H]1C(N)=O)[C@@H](C)O)[C@@H](C)O)[C@@H](C)O ({C18 diacid}-EASELSTALAGRLSAELHELATLPRTETGPESP-NH2)	≥ 200	≥ 200	≥ 200	≥ 200	≥ 200	≥ 200	≥ 200	4	≥ 200	8
CC(C)C[C@H](NC(=O)[C@H](C)NC(=O)[C@@H](NC(=O)[C@H](CO)NC(=O)[C@H](CC(C)C)NC(=O)[C@H](CCC(=O)O)NC(=O)[C@H](CO)NC(=O)[C@H](C)NC(=O)[C@H](CCC(=O)O)NC(=O)CCCCCCCCCCCCCCCCC(=O)O)[C@@H](C)O)C(=O)N[C@@H](CC(C)C)C(=O)NCC(=O)N[C@@H](CCCNC(=N)N)C(=O)N[C@@H](CC(C)C)C(=O)N[C@@H](CO)C(=O)N[C@@H](C)C(=O)N[C@@H](CCC(=O)O)C(=O)N[C@@H](CC(C)C)C(=O)N[C@@H](Cc1cnc[nH]1)C(=O)N[C@@H](CCC(=O)O)C(=O)N[C@@H](CC(C)C)C(=O)N[C@@H](C)C(=O)N[C@H](C(=O)N[C@@H](CC(C)C)C(=O)N1CCC[C@H]1C(=O)N[C@@H](CCCNC(=N)N)C(=O)N[C@H](C(=O)N[C@@H](CCC(=O)O)C(=O)N[C@H](C(=O)NCC(=O)N1CCC[C@H]1C(=O)N[C@@H](CCC(=O)O)C(=O)N[C@@H](CO)C(=O)N1CCC[C@H]1C(N)=O)[C@@H](C)O)[C@@H](C)O)[C@@H](C)O ({C18 diacid}-EASELSTALLGRLSAELHELATLPRTETGPESP-NH2)	≥ 200	≥ 200	≥ 200	≥ 200	≥ 200	≥ 200	≥ 200	13	≥ 200	28

Now from value to compound:

solubility at 18 h [1] [µM]	solubility at 18 h [2] [µM]	solubility at 18 h [3] [µM]	solubility at 18 h [4] [µM]	solubility at 18 h [5] [µM]	solubility at 18 h [6] [µM]	solubility at 18 h [7] [µM]	EC50 (Calcitonin receptor) [pM]	solubility at 18 h [8] [µM]	EC50 [9] [pM]	SMILES
≥ 200	≥ 200	≥ 200	≥ 200	≥ 200	≥ 200	≥ 200	5		10	CC[C@H](C)[C@H](NC(=O)[C@H](C)NC(=O)[C@@H](NC(=O)[C@H](CO)NC(=O)[C@@H](NC(=O)[C@H](CCC(=O)O)NC(=O)[C@H](CO)NC(=O)[C@H](C)NC(=O)[C@H](CCC(=O)O)NC(=O)CCCCCCCCCCCCCCCCC(=O)O)[C@@H](C)CC)[C@@H](C)O)C(=O)N[C@H](C(=O)NCC(=O)N[C@@H](CCCNC(=N)N)C(=O)N[C@@H](CC(C)C)C(=O)N[C@@H](CO)C(=O)N[C@@H](C)C(=O)N[C@@H](CCC(=O)O)C(=O)N[C@@H](CC(C)C)C(=O)N[C@@H](Cc1cnc[nH]1)C(=O)N[C@@H](CCC(=O)O)C(=O)N[C@@H](CC(C)C)C(=O)N[C@@H](C)C(=O)N[C@H](C(=O)N[C@@H](CC(C)C)C(=O)N1CCC[C@H]1C(=O)N[C@@H](CCCNC(=N)N)C(=O)N[C@H](C(=O)N[C@@H](CCC(=O)O)C(=O)N[C@H](C(=O)NCC(=O)N1CCC[C@H]1C(=O)N[C@@H](CCC(=O)O)C(=O)N[C@@H](CO)C(=O)N1CCC[C@H]1C(N)=O)[C@@H](C)O)[C@@H](C)O)[C@@H](C)O)[C@@H](C)CC ({C18 diacid}-EASEISTAIIGRLSAELHELATLPRTETGPESP-NH2)
≥ 200	≥ 200	≥ 200	≥ 200	≥ 200	≥ 200	≥ 200		≥ 200		CCC(C)[C@H](NC(=O)[C@@H](NC(=O)[C@H](C)NC(=O)[C@@H](NC(=O)[C@H](CO)NC(=O)[C@H](CC(C)C)NC(=O)[C@H](CCC(=O)O)NC(=O)[C@H](CO)NC(=O)[C@H](C)NC(=O)[C@H](CCC(=O)O)NC(=O)CCCCCCCCCCCCCCCCC(=O)O)[C@@H](C)O)C(C)C)C(=O)NCC(=O)N[C@@H](CCCNC(=N)N)C(=O)N[C@@H](CC(C)C)C(=O)N[C@@H](CO)C(=O)N[C@@H](C)C(=O)N[C@@H](CCC(=O)O)C(=O)N[C@@H](CC(C)C)C(=O)N[C@@H](Cc1cnc[nH]1)C(=O)N[C@@H](CCC(=O)O)C(=O)N[C@@H](CC(C)C)C(=O)N[C@@H](C)C(=O)N[C@H](C(=O)N[C@@H](CC(C)C)C(=O)N1CCC[C@H]1C(=O)N[C@@H](CCCNC(=N)N)C(=O)N[C@H](C(=O)N[C@@H](CCC(=O)O)C(=O)N[C@H](C(=O)NCC(=O)N1CCC[C@H]1C(=O)N[C@@H](CCC(=O)O)C(=O)N[C@@H](CO)C(=O)N1CCC[C@H]1C(N)=O)[C@@H](C)O)[C@@H](C)O)[C@@H](C)O (some centres undefined) ({C18 diacid}-EASELSTAV[Ile(3ξ)]GRLSAELHELATLPRTETGPESP-NH2)
